# Experiments:
# [1] = target: LADH; settings: read-out: Ki, inhibition of LADH; cited from earlier work
# [2] = tested on: alcohol metabolism; test: Clinical Study Protocol: alcohol metabolism from BAC (CA 2000 Digital Alcohol Detector), Examples 1 and 2; assay type: in vivo, human; settings: in the 500 ml Composition A (90 g fructose)
# Experimental: Clinical Study Protocol—The studies presented in Examples 1 and 2 were carried out with 10 individuals (6 males and 4 females, aged 24-57 years).
# In the control study (using water alone as the after-alcohol drink), the test persons were given 8 oz. (ca.2.4 dl) of vodka mixed with 6 dl Sprite® (The Coca Cola Company). The alcohol was consumed within one hour. At a given time, 30-60 minutes after alcohol consumption, each person drank a given volume of water (control composition). The alcohol level was then measured as described below.
# One week later, a second study was carried out, wherein the same test persons were given the same amounts of vodka and Sprite®, respectively. At the given time after alcohol consumption, each test person drank the given volume of a test composition. The alcohol level was then measured as described just below.
# Blood alcohol concentration (BAC) was measured, using a CA 2000 Digital Alcohol Detector, once every 30 minutes in each experiment. Each value is an average of four parallel measurements. Evaluation of effect against hangover was graded on a scale from 1-10 (where 10 represents the greatest effect).
# The study protocol was carried out as described above, wherein the test composition comprised Comparative Composition A (defined below); the given time was 45 minutes; and the given volume was 500 ml. […]
Compound,Ki [1],Contribution of fructose to the acceleration of alcohol degradation [2]
NC(=O)C1=CN([C@@H]2O[C@H](COP(=O)(O)OP(=O)(O)OC[C@H]3O[C@@H](n4cnc5c(N)ncnc54)[C@H](O)[C@@H]3O)[C@@H](O)[C@H]2O)C=CC1 [NADH],56 µM,–
O=C(CO)[C@@H](O)[C@H](O)[C@H](O)CO [fructose],–,20-25%
